From patent publication US20240174622A1, “COMPOUND AND RADIOACTIVE LABELING COMPOUND” (NIHON MEDI-PHYSICS CO., LTD., priority 2021, published 2024)

Tests used:
[1] = target: human serum albumin (HSA) (Homo sapiens, UniProt P02768); test: Evaluation of binding to albumin (HSA solution, PBS control); conditions: left to stand in HSA solution (45 mg/mL)
Experimental: Thereafter, the reaction liquids were added to a spin column (Sephadex G-100; manufactured by Cytiva), and centrifuged at 1500×g at 4° C. for 2 minutes. After separation, the radioactivity for each of the column and the eluate was measured with a gamma counter.
When a compound to be evaluated binds to albumin to form a composite, the compound passes through the column because of the increased molecular size.
As in Examples described above, PBS and human albumin were used to evaluate binding to albumin.
Thereafter, the reaction liquid was added to a spin column (Sephadex G-50; manufactured by Cytiva), and centrifuged at 1500×g at 4° C. for 2 minutes. After separation, the radioactivity of the column and the eluate was measured with a gamma counter.

[2] = system: LNCaP tumor-transplanted mouse; test: Internal radioactivity distribution using LNCaP tumor-transplanted mouse; type: in vivo
Experimental: (§1) The animal test was performed in compliance with the guidelines of Kyoto University Animal Experiment Committee. Male CB17/IcrJcl-Prkdc^scid mice were purchased from CLEA Japan, Inc. The animals were kept under 12 h/12 h, day/night cycle conditions and fed ad libitum with food and water. LNCaP cells (1.0×10^7 cells/mouse) or PC-3 cells (1.0×10^7 cells/mouse) were suspended in a mixture of PBS and Matrigel manufactured by Corning Life Sciences (1:1, 150 μL) and the suspension was subcutaneously transplanted to the right shoulder of mice under isoflurane anesthesia. Thereafter, the mice were kept for 40 to 60 days.
LNCaP or PC-3 tumor-implanted mice were administered saline solutions (185 kBq, 100 μL) of [^111In]In-PSMA-DA1 or [^111In]In-PSMA-DB from the tail vein (n=3 each). Mice were euthanized 1, 4, 24, 48, 96, and 192 hours after administration. Thereafter, blood and each organ were recovered, and the mass and radioactivity of the organs were measured.
The percentage (% ID) of the radioactivity amount to the administered radioactivity amount (injected dose) is shown as the value (% ID/g) divided by the blood mass or the organ mass (g).
LNCaP tumor-implanted mice prepared by the same method as in Example 1-1 were administered a saline solution (241 kBq/100 μL) of [^111In]In-PtDA from the tail vein (n=3). Mice were euthanized 1, 24, and 48 hours after administration. Thereafter, blood and each organ were recovered, and the mass and radioactivity of the organs were measured.
LNCaP tumor-implanted mice prepared by the same method as in Example 1-1 were administered a saline solution (259 kBq/100 μL each) of each of the radiolabeled compounds in Examples 3-1 to 3-3 or Comparative Examples 2-1 to 2-2 from the tail vein (n=2 to 3). Mice were euthanized 1, 4, 24, 48, 96, and 192 hours after administration. Thereafter, blood and each organ were recovered, and the mass and radioactivity of the organs were measured.
as §1, with “LNCaP cells (4.3×10^6 cells/mouse) or” for “LNCaP cells (1.0×10^7 cells/mouse) or”, “PC-3 cells (3.3×10^6 cells/mouse) were” for “PC-3 cells (1.0×10^7 cells/mouse) were”, “shoulder of CB17/IcrJcl-Prkdc^scid mice under” for “shoulder of mice under”
Mice were euthanized 1, 4, 24, 48, 96, and 192 hours after administration. Thereafter, blood and each organ were recovered, and the mass and radioactivity of the organs were measured.
The results are shown in Table 12 (Mean value±standard deviation, n=3).

human serum albumin (HSA), sequence (P02768 25-609): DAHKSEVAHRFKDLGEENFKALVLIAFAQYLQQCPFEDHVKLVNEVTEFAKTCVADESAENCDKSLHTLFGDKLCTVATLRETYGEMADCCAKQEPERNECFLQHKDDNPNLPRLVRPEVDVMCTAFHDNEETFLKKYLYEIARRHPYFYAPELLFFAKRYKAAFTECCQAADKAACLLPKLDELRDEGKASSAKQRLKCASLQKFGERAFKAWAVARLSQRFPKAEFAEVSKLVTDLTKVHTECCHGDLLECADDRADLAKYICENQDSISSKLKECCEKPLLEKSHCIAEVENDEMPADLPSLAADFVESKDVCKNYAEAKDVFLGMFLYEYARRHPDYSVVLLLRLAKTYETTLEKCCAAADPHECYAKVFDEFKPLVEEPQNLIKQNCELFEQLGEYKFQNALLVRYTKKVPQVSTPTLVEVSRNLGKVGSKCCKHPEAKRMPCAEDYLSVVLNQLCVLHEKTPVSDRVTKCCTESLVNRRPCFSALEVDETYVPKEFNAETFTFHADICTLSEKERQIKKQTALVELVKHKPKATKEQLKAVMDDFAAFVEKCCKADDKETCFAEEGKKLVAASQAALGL

O=C([O-])CN(CCN(CCc1ccc(NC(=O)CCCCCNC(=O)CCC(=O)NCCCC[C@H](NC(=O)N[C@@H](CCC(=O)O)C(=O)O)C(=O)O)cc1)CCN(CC(=O)[O-])Cc1cccc(C(=O)[O-])n1)Cc1cccc(C(=O)[O-])n1.[111In+3] [[^111In]In-Neunpa-1, reference compound]
radioactivity in the eluate (in words) [1]: low
Blood ([2]; 1 h after administration): 2.30 ± 0.28 % ID/g
Brain ([2]; 1 h after administration): 0.05 ± 0.00 % ID/g
Heart ([2]; 1 h after administration): 0.70 ± 0.03 % ID/g
Intestine ([2]; 1 h after administration): 0.47 ± 0.03 % ID/g
Kidney ([2]; 1 h after administration): 214 ± 53.0 % ID/g
LNCaP Tumor ([2]; 1 h after administration): 1.06 ± 0.21 % ID/g
Liver ([2]; 1 h after administration): 0.60 ± 0.07 % ID/g
Lung ([2]; 1 h after administration): 1.75 ± 0.18 % ID/g
Muscle ([2]; 1 h after administration): 0.28 ± 0.06 % ID/g
Pancreas ([2]; 1 h after administration): 0.57 ± 0.14 % ID/g
Spleen ([2]; 1 h after administration): 6.83 ± 1.70 % ID/g
Stomach (% ID) ([2]; 1 h after administration): 0.17 ± 0.02 % ID
Blood ([2]; 4 h after administration): 1.24 ± 0.15 % ID/g
Brain ([2]; 4 h after administration): 0.04 ± 0.00 % ID/g
Heart ([2]; 4 h after administration): 0.47 ± 0.08 % ID/g
Intestine ([2]; 4 h after administration): 0.66 ± 0.08 % ID/g
Kidney ([2]; 4 h after administration): 125 ± 89.2 % ID/g
LNCaP Tumor ([2]; 4 h after administration): 0.69 ± 0.30 % ID/g
Liver ([2]; 4 h after administration): 0.69 ± 0.05 % ID/g
Lung ([2]; 4 h after administration): 1.03 ± 0.13 % ID/g
Muscle ([2]; 4 h after administration): 0.11 ± 0.04 % ID/g
Pancreas ([2]; 4 h after administration): 0.50 ± 0.13 % ID/g
Spleen ([2]; 4 h after administration): 4.76 ± 1.17 % ID/g
Stomach (% ID) ([2]; 4 h after administration): 0.11 ± 0.03 % ID
Blood ([2]; 24 h after administration): 0.20 ± 0.02 % ID/g
Brain ([2]; 24 h after administration): 0.02 ± 0.01 % ID/g
Heart ([2]; 24 h after administration): 0.21 ± 0.01 % ID/g
Intestine ([2]; 24 h after administration): 0.32 ± 0.02 % ID/g
Kidney ([2]; 24 h after administration): 13.5 ± 0.43 % ID/g
LNCaP Tumor ([2]; 24 h after administration): 0.28 ± 0.02 % ID/g
Liver ([2]; 24 h after administration): 0.69 ± 0.05 % ID/g
Lung ([2]; 24 h after administration): 0.34 ± 0.05 % ID/g
Muscle ([2]; 24 h after administration): 0.10 0.00 % ID/g
Pancreas ([2]; 24 h after administration): 0.28 ± 0.03 % ID/g
Spleen ([2]; 24 h after administration): 2.74 ± 0.07 % ID/g
Stomach (% ID) ([2]; 24 h after administration): 0.05 ± 0.00 % ID
Blood ([2]; 48 h after administration): 0.09 ± 0.03 % ID/g
Brain ([2]; 48 h after administration): 0.03 ± 0.01 % ID/g
Heart ([2]; 48 h after administration): 0.18 ± 0.05 % ID/g
Intestine ([2]; 48 h after administration): 0.32 ± 0.06 % ID/g
Kidney ([2]; 48 h after administration): 25.2 ± 17.1 % ID/g
LNCaP Tumor ([2]; 48 h after administration): 0.30 ± 0.11 % ID/g
Liver ([2]; 48 h after administration): 0.80 ± 0.13 % ID/g
Lung ([2]; 48 h after administration): 0.32 ± 0.04 % ID/g
Muscle ([2]; 48 h after administration): 0.10 ± 0.03 % ID/g
Pancreas ([2]; 48 h after administration): 0.38 ± 0.06 % ID/g
Spleen ([2]; 48 h after administration): 2.62 ± 0.79 % ID/g
Stomach (% ID) ([2]; 48 h after administration): 0.09 ± 0.06 % ID
Blood ([2]; 96 h after administration): 0.06 ± 0.02 % ID/g
Brain ([2]; 96 h after administration): 0.03 ± 0.00 % ID/g
Heart ([2]; 96 h after administration): 0.28 ± 0.06 % ID/g
Intestine ([2]; 96 h after administration): 0.16 ± 0.07 % ID/g
Kidney ([2]; 96 h after administration): 15.1 ± 4.76 % ID/g
LNCaP Tumor ([2]; 96 h after administration): 0.32 ± 0.09 % ID/g
Liver ([2]; 96 h after administration): 0.77 ± 0.07 % ID/g
Lung ([2]; 96 h after administration): 0.39 ± 0.06 % ID/g
Muscle ([2]; 96 h after administration): 0.09 ± 0.03 % ID/g
Pancreas ([2]; 96 h after administration): 0.32 ± 0.02 % ID/g
Spleen ([2]; 96 h after administration): 2.47 ± 0.60 % ID/g
Stomach (% ID) ([2]; 96 h after administration): 0.07 ± 0.03 % ID
Blood ([2]; 192 h after administration): 0.01 % ID/g
Brain ([2]; 192 h after administration): 0.03 % ID/g
Heart ([2]; 192 h after administration): 0.22 % ID/g
Intestine ([2]; 192 h after administration): 0.06 % ID/g
Kidney ([2]; 192 h after administration): 2.79 % ID/g
LNCaP Tumor ([2]; 192 h after administration): 0.15 % ID/g
Liver ([2]; 192 h after administration): 0.63 % ID/g
Lung ([2]; 192 h after administration): 0.20 % ID/g
Muscle ([2]; 192 h after administration): 0.07 % ID/g
Pancreas ([2]; 192 h after administration): 0.37 % ID/g
Spleen ([2]; 192 h after administration): 1.05 % ID/g
Stomach (% ID) ([2]; 192 h after administration): 0.02 % ID
